Measurements published in article PMC12524486, “Characterization of α-L-Rhamnosidase and β-D-Glucosidase Subunits of Naringinase Immobilized on a Magnetic Polysaccharide Carrier” (International Journal of Molecular Sciences, 2025).

Key:
[1] = test system: T1, α-L-rhamnosidase subunit of free naringinase from A. niger KMS; experiment: p-nitrophenol release at […] nm, initial rates, Lineweaver-Burk; type: biochemical, Aspergillus niger; settings: free enzyme (crude naringinase preparation), 0.1 M buffer pH 4.0, 50 °C, substrate 0.4-1.5 mM
T1 construct: gene alpha-L-rhamnosidase; native secreted enzyme in a crude naringinase preparation (culture fluid ultrafiltered, acetone precipitated)

[2] = test system: T2, β-D-glucosidase subunit of free naringinase from A. niger KMS; experiment: as above; type: biochemical, Aspergillus niger; settings: free enzyme (crude naringinase preparation), 0.1 M buffer pH 4.0, 50 °C, substrate 0.4-1.5 mM
T2 construct: gene beta-D-glucosidase; native secreted enzyme in a crude naringinase preparation (culture fluid ultrafiltered, acetone precipitated)

Km [1]	Km [2]	Compound
2080 ± 35.5 µM		C[C@@H]1O[C@@H](Oc2ccc([N+](=O)[O-])cc2)[C@H](O)[C@H](O)[C@H]1O [pNPR, 4-nitrophenyl α-L-rhamnopyranoside]
	2720 ± 78 µM	O=[N+]([O-])c1ccc(O[C@@H]2O[C@H](CO)[C@@H](O)[C@H](O)[C@H]2O)cc1 [pNPG, 4-nitrophenyl β-D-glucopyranoside]
